Data: ChEMBL document CHEMBL1201862, “PubChem BioAssay data set” (2004)
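In this assay, cells in 96-well plates receive the compound at five concentrations for 48 hours. Endpoints are linearly interpolated between the surrounding concentrations. Abbreviation: GI50, concentration required for 50% inhibition of growth.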 The source made the active and inactive calls. No stated cut-off is given here; in the data, active = GI50 up to about 1.1 µM and inactive = higher.

Columns and labels:
Test in all cases: growth of human tumour cells (NCI), 48 h
OVCAR-8 = test system: OVCAR-8
MDA-MB-231 = test system: MDA-MB-231
EKVX = test system: EKVX
HL-60 = test system: HL-60
786-0 = test system: 786-0
KM12 = test system: KM12
T47D = test system: T47D
K562 = test system: K562
SR = test system: SR
HT-29 = test system: HT-29
MDA-N = test system: MDA-N
COLO 205 = test system: COLO 205
SF-539 = test system: SF-539
NCI/ADR-RES = test system: NCI/ADR-RES
SF-295 = test system: SF-295
MDA-MB-435 = test system: MDA-MB-435
SF-268 = test system: SF-268
A549 = test system: A549
SK-MEL-2 = test system: SK-MEL-2
NCI-H522 = test system: NCI-H522

Measured: GI50

COc1cccc2nc3ccccc3nc12
inactive: OVCAR-8 23.8 µM | MDA-MB-231 67.6 µM | EKVX 86.7 µM | HL-60 > 100 µM | 786-0 74.1 µM | KM12 74.1 µM | T47D 76 µM | K562 80.2 µM | SR 44.1 µM | HT-29 46.3 µM | MDA-N > 100 µM | COLO 205 90.2 µM | SF-539 84.5 µM | NCI/ADR-RES > 100 µM | SF-295 80 µM | MDA-MB-435 > 100 µM | SF-268 87.9 µM | A549 54.2 µM

CN1CCN(c2cc3c(cc2F)c(=O)c(C(=O)O)cn3C2CC2)CC1CC#N (configuration not stated)
inactive: OVCAR-8 > 100 µM | MDA-MB-231 > 100 µM | EKVX > 100 µM | HL-60 > 100 µM | 786-0 > 100 µM | KM12 > 100 µM | T47D > 100 µM | K562 > 100 µM | SR > 100 µM | HT-29 > 100 µM | MDA-N > 100 µM | COLO 205 > 100 µM | SF-539 > 100 µM | NCI/ADR-RES > 100 µM | SF-295 > 100 µM | MDA-MB-435 > 100 µM | SF-268 > 100 µM | A549 > 100 µM

C#CCOCC12C=CC(O1)C1C(=O)N(C)C(=O)C12 (configuration not stated)
inactive: OVCAR-8 > 100 µM | MDA-MB-231 > 100 µM | EKVX > 100 µM | HL-60 > 100 µM | 786-0 > 100 µM | KM12 > 100 µM | T47D > 100 µM | SR > 100 µM | HT-29 > 100 µM | MDA-N > 100 µM | COLO 205 > 100 µM | SF-539 > 100 µM | NCI/ADR-RES > 100 µM | SF-295 > 100 µM | MDA-MB-435 > 100 µM | SF-268 > 100 µM | A549 > 100 µM

Oc1ccc(SCc2cc(O)ccc2O)cc1
inactive: OVCAR-8 16.5 µM | MDA-MB-231 16.5 µM | EKVX 18.9 µM | HL-60 2.85 µM | 786-0 12.8 µM | SK-MEL-2 14.9 µM | KM12 17.5 µM | T47D 8.39 µM | K562 3.96 µM | NCI-H522 1.79 µM | HT-29 36 µM | MDA-N 14.4 µM | COLO 205 19.2 µM | SF-539 3.54 µM | NCI/ADR-RES 14.4 µM | SF-295 15.6 µM | MDA-MB-435 13.1 µM | SF-268 9.04 µM | A549 41.3 µM
